Binding data for two compounds are collected here from publication PMC5783947 (2018).

The subject of experiment [1] is add riboswitch aptamer (RNA, riboswitch) CAACGCUUCAUAUAAUCCUAAUGAUAUGGUUUGGGAGUUUCUACCAAGAGCCUUAAACUCUUGAUUAUGAAGUCUGUCGCUUUAUCC
Put plainly: ACE-Scan microarray, ligand-induced duplex dissociation. Particulars: 130 mM KCl, 12 mM MgCl2; 50 mM Tris, pH 7.5, 23 °C; 4 mM adenine; array-bound ACEs displaced; weaker at lower Mg2+ or 10 °C.

Experiment [2] concerns ATP DNA aptamer (with 5' extension) (DNA, aptamer) TCACTGACCTGGGGGAGTATTGCGGAGGAAGGT
The experiment in a line: solution FRET dose-response, quencher strand displacement. The conditions noted are these: 300 mM NaCl, 5 mM MgCl2; 20 mM Tris, pH 8.3, 0.1% Tween-20, 22.5 °C; BHQ-2 ACEs 5'Q-2T:9, 5'Q4T:10, 5'Q4T:12:6G, 5'Q1A:15, 5'Q-5C:9 displaced.

The subject of experiment [3] is ATP RNA aptamer (RNA, aptamer) CUUGGGUUGGGAAGAAACUGUGGCACUUCGGUGCCAGCAACCCCAU
The experiment in a line: ACE-Scan microarray, ligand-induced duplex dissociation. Particulars: 300 mM NaCl, 5 mM MgCl2; 20 mM Tris, pH 7.6, room temperature; 10 mM ATP; array-bound ACEs displaced.

On to `Nc1ncnc2[nH]cnc12`, for which the binding entry in experiment [1] is recorded as “yes”. Consider `Nc1ncnc2c1ncn2[C@@H]1O[C@H](COP(=O)(O)OP(=O)(O)OP(=O)(O)O)[C@@H](O)[C@H]1O`, for which the binding entry in experiment [2] and in experiment [3] was “yes” each time.
